From publication PMC5218480 (PLoS ONE, 2017)

System: MV-4-11 cells
Test: Gene expression microarray analysis (Affymetrix PrimeView) and GSEA
Format: cell-based, human
Set-up: RFU PODN (11730768_x_at) / Fold change /veh PODN (11730768_x_at) / RFU LINC00158 (11744669_a_at) / Fold change /veh LINC00158 (11744669_a_at) / RFU DUSP10 (11751237_a_at) / Fold change /veh DUSP10 (11751237_a_at) / RFU ID3 (11757404_x_at) / Fold change /veh ID3 (11757404_x_at) / RFU PLEKHG5 (11737974_s_at) / Fold change /veh PLEKHG5 (11737974_s_at) / RFU LRRC4B (11730491_at) / Fold change /veh LRRC4B (11730491_at) / RFU GIMAP4 (11747438_a_at) / Fold change /veh GIMAP4 (11747438_a_at) / RFU KRT8 (11758183_x_at) / Fold change /veh KRT8 (11758183_x_at) / RFU CNN1 (11734310_a_at) / Fold change /veh CNN1 (11734310_a_at) / RFU VPS37D (11726825_at) / Fold change /veh VPS37D (11726825_at) / RFU C10orf10 (11716522_x_at) / Fold change /veh C10orf10 (11716522_x_at) / RFU KIR2DL2 /// KIR2DL4 /// KIR2DL5A /// KIR2DL5B /// KIR2DS1 /// KIR2DS2 /// KIR2DS3 /// KIR2DS4 /// KIR3DL3 /// KIR3DL3 /// KIR3DS1 (11738374_at) / Fold change /veh KIR2DL2 /// KIR2DL4 /// KIR2DL5A /// KIR2DL5B /// KIR2DS1 /// KIR2DS2 /// KIR2DS3 /// KIR2DS4 /// KIR3DL3 /// KIR3DL3 /// KIR3DS1 (11738374_at) / RFU C1QL1 (11718748_at) / Fold change /veh C1QL1 (11718748_at) / RFU TMPRSS4 (11747572_a_at) / Fold change /veh TMPRSS4 (11747572_a_at) / RFU HAMP (11756126_x_at) / Fold change /veh HAMP (11756126_x_at) / RFU RNFT2 (11725882_a_at) / Fold change /veh RNFT2 (11725882_a_at) / RFU NR4A2 (11747474_a_at) / Fold change /veh NR4A2 (11747474_a_at) / RFU ABCC12 (11746883_a_at) / Fold change /veh ABCC12 (11746883_a_at) / RFU TMEM136 (11760407_x_at) / Fold change /veh TMEM136 (11760407_x_at) / RFU CLDN22 /// WWC2 (11732394_at) / Fold change /veh CLDN22 /// WWC2 (11732394_at) / RFU HLA-DPB1 (11760878_x_at) / Fold change /veh HLA-DPB1 (11760878_x_at) / RFU SPINT1 (11716480_a_at) / Fold change /veh SPINT1 (11716480_a_at) / RFU GAP43 (11754022_s_at) / Fold change /veh GAP43 (11754022_s_at) / RFU A4GNT (11735810_at) / Fold change /veh A4GNT (11735810_at) / RFU PRB3 (11715151_x_at) / Fold change /veh PRB3 (11715151_x_at) / RFU TUBB4B (11761932_at) / Fold change /veh TUBB4B (11761932_at) / RFU CAPN14 (11732068_a_at) / Fold change /veh CAPN14 (11732068_a_at) / RFU TMCC2 (11721928_a_at) / Fold change /veh TMCC2 (11721928_a_at) / RFU IRGQ (11745062_a_at) / Fold change /veh IRGQ (11745062_a_at) / RFU FAM174B (11720279_a_at) / Fold change /veh FAM174B (11720279_a_at) / RFU TMPRSS4 (11748680_a_at) / Fold change /veh TMPRSS4 (11748680_a_at) / RFU FAM212B (11763350_a_at) / Fold change /veh FAM212B (11763350_a_at) / RFU PLEKHG5 (11743358_a_at) / Fold change /veh PLEKHG5 (11743358_a_at) / RFU ZSCAN30 (11745921_a_at) / Fold change /veh ZSCAN30 (11745921_a_at) / RFU CMKLR1 (11741424_a_at) / Fold change /veh CMKLR1 (11741424_a_at) / RFU LOC101060620 /// MAPK8IP1 (11723275_at) / Fold change /veh LOC101060620 /// MAPK8IP1 (11723275_at) / RFU SPTSSB (11747773_x_at) / Fold change /veh SPTSSB (11747773_x_at) / RFU PRSS12 (11739890_at) / Fold change /veh PRSS12 (11739890_at) / RFU BIN1 (11741810_x_at) / Fold change /veh BIN1 (11741810_x_at) / RFU WNT11 (11732464_a_at) / Fold change /veh WNT11 (11732464_a_at) / RFU C10orf10 (11716521_a_at) / Fold change /veh C10orf10 (11716521_a_at) / RFU C5orf56 (11738089_at) / Fold change /veh C5orf56 (11738089_at) / RFU CYB561 (11721691_x_at) / Fold change /veh CYB561 (11721691_x_at) / RFU ANKRD19P (11752326_a_at) / Fold change /veh ANKRD19P (11752326_a_at) / RFU OR2T12 /// OR2T33 /// OR2T8 (11738714_s_at) / Fold change /veh OR2T12 /// OR2T33 /// OR2T8 (11738714_s_at) / RFU VCAN (11748164_a_at) / Fold change /veh VCAN (11748164_a_at) / RFU JSRP1 (11732532_at) / Fold change /veh JSRP1 (11732532_at) / RFU KRTAP10-11 (11738290_x_at) / Fold change /veh KRTAP10-11 (11738290_x_at) / RFU MYO3A (11730013_a_at) / Fold change /veh MYO3A (11730013_a_at) / RFU EBF3 (11725865_a_at) / Fold change /veh EBF3 (11725865_a_at) / RFU CAMK2N1 (11719241_x_at) / Fold change /veh CAMK2N1 (11719241_x_at) / RFU C5orf56 (11738088_a_at) / Fold change /veh C5orf56 (11738088_a_at) / RFU OLFML3 (11715873_a_at) / Fold change /veh OLFML3 (11715873_a_at) / RFU LOC100653217 /// NTM (11731650_a_at) / Fold change /veh LOC100653217 /// NTM (11731650_a_at) / RFU MAPK11 (11762145_a_at) / Fold change /veh MAPK11 (11762145_a_at) / RFU FIZ1 (11724087_x_at) / Fold change /veh FIZ1 (11724087_x_at) / RFU OASL (11726364_x_at) / Fold change /veh OASL (11726364_x_at) / RFU SOX15 (11748057_x_at) / Fold change /veh SOX15 (11748057_x_at) / RFU CD79A (11719716_a_at) / Fold change /veh CD79A (11719716_a_at) / RFU HIST1H1D (11736915_at) / Fold change /veh HIST1H1D (11736915_at) / RFU CASKIN2 (11723855_a_at) / Fold change /veh CASKIN2 (11723855_a_at) / RFU LOC730098 (11760151_x_at) / Fold change /veh LOC730098 (11760151_x_at) / RFU OR4N2 (11742367_at) / Fold change /veh OR4N2 (11742367_at) / RFU PRRT2 (11749266_a_at) / Fold change /veh PRRT2 (11749266_a_at) / RFU SNX32 (11753110_a_at) / Fold change /veh SNX32 (11753110_a_at) / RFU CDHR5 (11726645_a_at) / Fold change /veh CDHR5 (11726645_a_at) / RFU RCAN1 (11760418_a_at) / Fold change /veh RCAN1 (11760418_a_at) / RFU FAM167A (11723789_a_at) / Fold change /veh FAM167A (11723789_a_at) / RFU FAM26E (11764081_at) / Fold change /veh FAM26E (11764081_at) / RFU ISYNA1 (11749810_s_at) / Fold change /veh ISYNA1 (11749810_s_at) / RFU ACY1 (11761880_at) / Fold change /veh ACY1 (11761880_at) / RFU 11764098_at / Fold change /veh 11764098_at / RFU SAMD14 (11745864_x_at) / Fold change /veh SAMD14 (11745864_x_at) / RFU NPB (11741838_a_at) / Fold change /veh NPB (11741838_a_at) / RFU TMPRSS6 (11731388_a_at) / Fold change /veh TMPRSS6 (11731388_a_at) / RFU KRTAP10-2 (11738614_at) / Fold change /veh KRTAP10-2 (11738614_at) / RFU ARHGAP8 /// PRR5-ARHGAP8 (11727945_x_at) / Fold change /veh ARHGAP8 /// PRR5-ARHGAP8 (11727945_x_at) / RFU KRTAP5-7 /// NADSYN1 (11734609_at) / Fold change /veh KRTAP5-7 /// NADSYN1 (11734609_at) / RFU RASL12 (11751679_a_at) / Fold change /veh RASL12 (11751679_a_at) / RFU CDKN2B (11736163_a_at) / Fold change /veh CDKN2B (11736163_a_at) / RFU PRF1 (11729649_at) / Fold change /veh PRF1 (11729649_at) / RFU, ZNF638 /// ZNF638-IT1 / Fold change vs veh, ZNF638 /// ZNF638-IT1 / RFU, PANK3 / Fold change vs veh, PANK3 / RFU, SH3YL1 / Fold change vs veh, SH3YL1 / RFU, ZEB2 / Fold change vs veh, ZEB2 / RFU, NRIP1 / Fold change vs veh, NRIP1 / RFU, PTTG1IP / Fold change vs veh, PTTG1IP / RFU, CAPN2 / Fold change vs veh, CAPN2 / RFU, MED14 / Fold change vs veh, MED14 / RFU, SNORA58 / Fold change vs veh, SNORA58 / RFU, C1orf63 / Fold change vs veh, C1orf63 / RFU, LRRFIP1 / Fold change vs veh, LRRFIP1 / RFU, NDUFAF7 / Fold change vs veh, NDUFAF7 / RFU, SLC12A2 / Fold change vs veh, SLC12A2 / RFU, IBTK / Fold change vs veh, IBTK / RFU, ESF1 / Fold change vs veh, ESF1 / Fold change vs veh, TMEM50B / RFU, TAOK1 / Fold change vs veh, TAOK1 / RFU, ACBD3 / Fold change vs veh, ACBD3 / RFU, TMA16 / Fold change vs veh, TMA16 / RFU, RWDD3 / Fold change vs veh, RWDD3 / RFU, BCAT1 / Fold change vs veh, BCAT1 / RFU, EDEM3 / Fold change vs veh, EDEM3 / RFU, TMEM33 / Fold change vs veh, TMEM33 / RFU, WDR75 / Fold change vs veh, WDR75 / RFU, AHCTF1 / Fold change vs veh, AHCTF1 / RFU, TFRC / Fold change vs veh, TFRC / RFU, ZDHHC17 / Fold change vs veh, ZDHHC17 / RFU, NOM1 / Fold change vs veh, NOM1 / RFU, ARL8B / Fold change vs veh, ARL8B / RFU, ZBTB11 / Fold change vs veh, ZBTB11 / RFU, TAMM41 / Fold change vs veh, TAMM41 / RFU, KIAA1704 /// LOC100996395 / Fold change vs veh, KIAA1704 /// LOC100996395 / RFU, ING1 / Fold change vs veh, ING1 / RFU, TRMT61B / Fold change vs veh, TRMT61B / RFU, FUBP3 / Fold change vs veh, FUBP3 / RFU, TP53 / Fold change vs veh, TP53 / RFU, TNKS2 / Fold change vs veh, TNKS2 / RFU, ZFP14 / Fold change vs veh, ZFP14 / RFU, ACTR2 / Fold change vs veh, ACTR2 / RFU, PPP3R1 / Fold change vs veh, PPP3R1 / RFU, PIK3R1 / Fold change vs veh, PIK3R1 / RFU, HNRNPA1 / Fold change vs veh, HNRNPA1 / RFU, RNF170 / Fold change vs veh, RNF170 / RFU, ZNF28 / Fold change vs veh, ZNF28 / RFU, RNGTT / Fold change vs veh, RNGTT / RFU, OGT / Fold change vs veh, OGT / RFU, BRD1 / Fold change vs veh, BRD1 / RFU, MARS / Fold change vs veh, MARS / RFU, ZNF655 / Fold change vs veh, ZNF655 / RFU, FAHD1 / Fold change vs veh, FAHD1 / RFU, BDP1 / Fold change vs veh, BDP1 / RFU, LRRCC1 / Fold change vs veh, LRRCC1 / RFU, ARID1A / Fold change vs veh, ARID1A / RFU, ZNF146 / Fold change vs veh, ZNF146 / RFU, ZNF330 / Fold change vs veh, ZNF330 / RFU, GPN3 / Fold change vs veh, GPN3 / RFU, C9orf123 / Fold change vs veh, C9orf123 / RFU, N4BP2L2 / Fold change vs veh, N4BP2L2 / RFU, ARFIP1 / Fold change vs veh, ARFIP1 / RFU, FAM179B / Fold change vs veh, FAM179B / RFU, BCL10 / Fold change vs veh, BCL10 / RFU, UHRF1BP1L / Fold change vs veh, UHRF1BP1L / RFU, BET1 / Fold change vs veh, BET1 / RFU, CNOT2 / Fold change vs veh, CNOT2 / RFU, ZNF268 / Fold change vs veh, ZNF268 / Fold change vs veh, ZNF507 / RFU, DGCR2 / Fold change vs veh, DGCR2 / RFU, WDSUB1 / Fold change vs veh, WDSUB1 / Fold change vs veh, HSP90B1 /// MIR3652 / RFU, ADSS / Fold change vs veh, ADSS / RFU, GK / Fold change vs veh, GK / RFU, ZNF148 / Fold change vs veh, ZNF148 / RFU, TAF9 / Fold change vs veh, TAF9 / RFU, SLC1A5 / Fold change vs veh, SLC1A5 / RFU, SLMO2 / Fold change vs veh, SLMO2 / RFU, ABCC4 / Fold change vs veh, ABCC4 / RFU, LOC101060439 /// RAP1B / Fold change vs veh, LOC101060439 /// RAP1B / RFU, RFX7 / Fold change vs veh, RFX7 / RFU, GTPBP10 / Fold change vs veh, GTPBP10 / RFU, CNEP1R1 / Fold change vs veh, CNEP1R1 / RFU, BIVM-ERCC5 /// ERCC5 / Fold change vs veh, BIVM-ERCC5 /// ERCC5 / RFU, ILF3 / Fold change vs veh, ILF3 / RFU 11762660_at / Fold change /veh 11762660_at / RFU VCAN (11757783_s_at) / Fold change /veh VCAN (11757783_s_at) / RFU DDX43 (11728927_at) / Fold change /veh DDX43 (11728927_at) / RFU KRT8 (11758188_x_at) / Fold change /veh KRT8 (11758188_x_at) / RFU NKD1 (11759106_at) / Fold change /veh NKD1 (11759106_at) / RFU SRD5A1 (11742802_a_at) / Fold change /veh SRD5A1 (11742802_a_at) / RFU TPSAB1 /// TPSB2 (11721975_s_at) / Fold change /veh TPSAB1 /// TPSB2 (11721975_s_at) / RFU GSTM3 (11746129_a_at) / Fold change /veh GSTM3 (11746129_a_at) / RFU IL23R (11737362_x_at) / Fold change /veh IL23R (11737362_x_at) / RFU TMEM51 (11727254_a_at) / Fold change /veh TMEM51 (11727254_a_at) / RFU PIWIL2 (11732686_x_at) / Fold change /veh PIWIL2 (11732686_x_at) / RFU ORM1 (11744905_x_at) / Fold change /veh ORM1 (11744905_x_at) / RFU CCDC152 (11743942_at) / Fold change /veh CCDC152 (11743942_at) / RFU ECM1 (11717891_a_at) / Fold change /veh ECM1 (11717891_a_at) / RFU IL23R (11748794_a_at) / Fold change /veh IL23R (11748794_a_at) / RFU TNFAIP8L3 (11732012_x_at) / Fold change /veh TNFAIP8L3 (11732012_x_at) / RFU MBOAT4 (11741988_at) / Fold change /veh MBOAT4 (11741988_at) / RFU 11764193_at / Fold change /veh 11764193_at / RFU TMEM53 (11763286_at) / Fold change /veh TMEM53 (11763286_at) / RFU MAGEB2 (11727129_at) / Fold change /veh MAGEB2 (11727129_at) / RFU TMEM200A (11744735_a_at) / Fold change /veh TMEM200A (11744735_a_at) / RFU CCDC152 (11751479_a_at) / Fold change /veh CCDC152 (11751479_a_at) / RFU FAM211A (11726209_a_at) / Fold change /veh FAM211A (11726209_a_at) / RFU RGS16 (11746705_a_at) / Fold change /veh RGS16 (11746705_a_at) / RFU VCAN (11755009_s_at) / Fold change /veh VCAN (11755009_s_at) / RFU RHOB (11743442_s_at) / Fold change /veh RHOB (11743442_s_at) / RFU RGS16 (11720943_a_at) / Fold change /veh RGS16 (11720943_a_at) / RFU RGS16 (11720944_at) / Fold change /veh RGS16 (11720944_at) / RFU, VPS4B / Fold change vs veh, VPS4B / RFU, CREB1 / Fold change vs veh, CREB1 / RFU, DNAJC13 / Fold change vs veh, DNAJC13 / RFU, GNAQ / Fold change vs veh, GNAQ / RFU, CDK5R1 / Fold change vs veh, CDK5R1 / RFU, ZRANB3 / Fold change vs veh, ZRANB3 / RFU, CUL4A / Fold change vs veh, CUL4A / RFU, CCNY / Fold change vs veh, CCNY / RFU, UFL1 / Fold change vs veh, UFL1 / RFU, COG3 / Fold change vs veh, COG3 / RFU, DIAPH2 / Fold change vs veh, DIAPH2 / RFU, SKA2 / Fold change vs veh, SKA2 / RFU, AFF3 / Fold change vs veh, AFF3 / RFU, LMF1 / Fold change vs veh, LMF1 / RFU, IPO11 / Fold change vs veh, IPO11 / RFU, DFFB / Fold change vs veh, DFFB / RFU, FOXP1 / Fold change vs veh, FOXP1 / RFU, CARD8 / Fold change vs veh, CARD8 / RFU, STRN3 / Fold change vs veh, STRN3 / RFU, ADK / Fold change vs veh, ADK / RFU, RASSF2 / Fold change vs veh, RASSF2 / RFU, WIPF1 / Fold change vs veh, WIPF1 / RFU, LARP1B / Fold change vs veh, LARP1B / RFU, RASA1 / Fold change vs veh, RASA1 / RFU, RB1 / Fold change vs veh, RB1 / RFU, PPFIA1 / Fold change vs veh, PPFIA1 / RFU, MAT2A / Fold change vs veh, MAT2A / RFU, CCT5 / Fold change vs veh, CCT5 / RFU, WDR92 / Fold change vs veh, WDR92 / RFU, CUX1 / Fold change vs veh, CUX1 / RFU, TTC7A / Fold change vs veh, TTC7A / RFU, TMEM135 / Fold change vs veh, TMEM135 / RFU, DEPTOR / Fold change vs veh, DEPTOR / RFU, CPM / Fold change vs veh, CPM / RFU, DNAJB6 / Fold change vs veh, DNAJB6 / RFU, CACNA2D3 / Fold change vs veh, CACNA2D3 / RFU, DTX4 / Fold change vs veh, DTX4 / RFU, TFCP2 / Fold change vs veh, TFCP2 / RFU, GMCL1 /// GMCL1P1 / Fold change vs veh, GMCL1 /// GMCL1P1 / RFU, AEBP2 / Fold change vs veh, AEBP2 / RFU, SNHG1 /// SNORD22 /// SNORD25 /// SNORD26 /// SNORD27 /// SNORD28 /// SNORD29 /// SNORD31 / Fold change vs veh, SNHG1 /// SNORD22 /// SNORD25 /// SNORD26 /// SNORD27 /// SNORD28 /// SNORD29 /// SNORD31 / Fold change (Aza/veh), C12orf56 (ProbeSet 11735607_a_at) / Fold change (ACY-1035/veh), C12orf56 (ProbeSet 11735607_a_at) / Fold change (Aza/veh), FGFR1OP (ProbeSet 11751329_s_at) / Fold change (ACY-1035/veh), FGFR1OP (ProbeSet 11751329_s_at) / Fold change (Aza/veh), VPS36 (ProbeSet 11739960_a_at) / Fold change (ACY-1035/veh), VPS36 (ProbeSet 11739960_a_at) / RFU SYPL1 (11715823_x_at) / Fold change /veh SYPL1 (11715823_x_at) / RFU IGFBP7 (11715501_s_at) / Fold change /veh IGFBP7 (11715501_s_at) / RFU REEP3 (11722064_at) / Fold change /veh REEP3 (11722064_at) / RFU IGLL1 (11728026_x_at) / Fold change /veh IGLL1 (11728026_x_at): dose or concentration left out as unconfirmed
Conditions: ProbeSet 11755425_a_at; LIST B

**Q.** How did the “Fold change vs veh, FAM179B” value turn out when `Nc1ncn([C@@H]2O[C@H](CO)[C@@H](O)[C@H]2O)c(=O)n1` [azacitidine] was run?
**A.** 0.87
